{"source": "paper PMC5343891", "about": "“Cell Imaging Counting as a Novel Ex Vivo Approach for Investigating Drug-Induced Hepatotoxicity in Zebrafish Larvae” (International Journal of Molecular Sciences, 2017); as to Hepatotoxicity detected: Morphology: key: Bold S: statistically significant difference; NS: no statistically significant difference", "key": {"[1]": {"system": "Tg(fabp10a:DsRed) zebrafish larvae", "experiment": "Lethality in zebrafish larvae: maximum non-toxic drug concentration/dose (MC/MD)", "format": "in vivo, Zebrafish (Danio rerio)", "conditions": "for MC: maximum non-toxic drug concentration: immersion 3-6 dpf, less than 10% larval death at 6 dpf, or highest soluble concentration; for lethality (larval death): immersion, yolk and pericardial injection, up to highest soluble concentration/dose, 6 dpf; for MD: maximum non-toxic drug dose: less than 10% larval death at 6 dpf, or highest dose injectable without precipitation", "from_the_text": "The results are expressed as percentage of dead larvae relative to the total larvae (mean ± SD)."}, "[2]": {"system": "Tg(fabp10a:DsRed) zebrafish larvae", "experiment": "Hepatotoxicity by quantification of DsRed-labeled hepatocytes using cell imaging counting (CIC)", "conditions": "for change in amount of recovered hepatocytes: any of the administration routes, vs non-treated animals; for Hepatotoxicity detected: number of Hepatocytes (CIC): 6 dpf, vs vehicle control", "procedure": "We then used CIC and quantified ex vivo DsRed-labeled hepatocytes after dispase-digestion of hepatotoxicant-exposed larvae. […] Analysis was performed after three days of treatment (immersion) or three days after treatment (injection), at 6 dpf. A total of 10 and 12 larvae were used individually per condition for immersion and injections, respectively. The experiment was performed in triplicate and data were pooled. […] Means ± SD of the number of hepatocytes per larva are shown.\nCompounds tested were dissolved in DMSO (stock solution) and then further diluted in Danieau’s solution with a final concentration of 1% DMSO or diluted with 0.9% NaCl solution (1:1 ratio) to obtain a working solution for immersion and yolk/pericardial injections, respectively. At 3 dpf, hatched Tg(fabp10a:DsRed) larvae were transferred to 24-well plates (Falcon®, Corning, Lasne, Belgium) with each well containing 10 larvae in 1 mL Danieau’s solution and the dissolved drug or the vehicle control for immersion. For yolk injections, and pericardial injections into the bloodstream via the common cardinal veins, 12 larvae were used for each condition, and each larva was injected with 1 nL of solution at 3 dpf.\nIn order to digest the larvae and separate hepatocytes from the liver, larvae were transferred to 96 well-plates (Falcon®, Corning, Lasne, Belgium) with one larva per well and incubated with 200 µL 2.5 mg dispase/mL DPBS for 4 h. […] The hepatocytes were dispersed by pipetting up and down 20 times with a 1 mL automatic pipette. After digestion, hepatocytes were positioned at the bottom of the well by centrifugation at 200× g (Jouan CR412 centrifuge, Jouan, Saint-Herblain, France) for 15 min.\nFluorescent hepatocytes present in the wells were imaged and counted on an IN Cell Analyzer 2000 using software IN Cell Investigator Developer Toolbox (GE Healthcare, Machelen, Belgium), with a 2×/0.1 NA lens, DsRed fluorescence channel, a 0.1-s exposure time, and the intensity segmentation (172-4095) set to ensure hepatocytes were recognized selectively.\nDifferences between drug-treated groups and control vehicle control (VHC) regarding numbers of hepatocytes and liver sizes were analyzed for statistical significance using an ANOVA test. Regarding the liver morphology, Fisher’s exact test was used for the analysis. p < 0.05 was considered statistically significant."}, "[3]": {"system": "Tg(fabp10a:DsRed) zebrafish larvae", "experiment": "Hepatotoxicity by size analysis of fluorescent 2D liver images (ImageJ); as to Hepatotoxicity detected: Liver size: key: Bold S: statistically significant difference; NS: no statistically significant difference", "format": "in vivo, Zebrafish (Danio rerio)", "conditions": "for change in liver size: any of the administration routes, vs non-treated animals; for Hepatotoxicity detected: Liver size: 6 dpf, vs vehicle control", "procedure": "Next, the 2D images obtained in the previous section were used to analyze the size of the fluorescent livers by ImageJ software. […].\n(§1) At 6 dpf treated larvae were anesthetized by 0.5 mM tricaine in a 6 well-plate (Falcon®) and arranged so that they were lying on their right sides with their heads facing left. This enabled us to view the left lateral side of the larvae and the larger lobe of the liver that was scored in a blinded manner under a fluorescence microscope (Leica MZ10F-Dsred channel, 40× magnification, Leica Microsystems, Wetzlar, Germany). Livers were considered abnormal if their typical globular structure underwent gross morphological changes. Images of the livers (including a scale bar) were imported to ImageJ software (National Institutes of Health, Bethesda, MD, USA) for determining the liver size. To that end, the picture was set to scale (functions: analyze, set scale), the liver area extracted (functions: split channel, threshold) and the area calculated (function: analyze particles, settings: size = 0−infinity, circularity = 0.00−1.00)."}, "[4]": {"system": "Tg(fabp10a:DsRed) zebrafish larvae", "experiment": "Hepatotoxicity by visual analysis of liver morphology using fluorescence microscopy", "format": "in vivo, Zebrafish (Danio rerio)", "conditions": "6 dpf; for Hepatotoxicity detected: Morphology: vs vehicle control", "procedure": "We observed a range of abnormal liver phenotypes including reduced and enlarged livers (Figure 2). […].\nThe results are expressed as the percentage of larvae having normal or abnormal liver morphology.\nas §1"}, "[5]": {"experiment": "Pharmacokinetics in zebrafish larvae (larval extracts, UHPLC-UV)", "format": "in vivo, Zebrafish (Danio rerio)", "conditions": "0-24 h post treatment; for course of larval concentration after injection: yolk and pericardial injection at MD", "description": "At given time points (0, 2, 6, 12 and 24 h), treated larvae were collected and transferred to 1.5 mL Eppendorf® tubes pre-filled with acid washed glass beads (diameter: 710–1180 µm, Sigma-Aldrich) and 270 µL of extraction medium (1:2 water:methanol, each containing 0.1% formic acid) was added (10 larvae per Eppendorf® tube). Samples were centrifuged for 15 s at 14,100× g (Eppendorf Mini Spin Plus, Hamburg, Germany) to insure high homogenization efficiency. Subsequently, the samples were homogenized with ultrasonication (Diagenode Bioruptor Plus, Seraing, Belgium) at +4 °C and high energy input setting to ensure the highest possible disruption of the cells. The overall treatment time was 15 min spread over 30 cycles of 30 s treatment followed by pauses of 30 s in-between. Six samples were homogenized during each treatment cycle. Subsequently, treated samples were centrifuged at 14,100× g for 15 min and 200 µL of supernatant was transferred to an empty Eppendorf tube (1.5 mL) and stored on ice until all samples were processed. All samples were then placed into a vacuum oven (Model 1410, Sheldon Manufacturing Inc., Cornelius, OR, USA) and evaporated until dry at +45 °C during 45 min. The samples were then reconstituted with a mobile phase-like solution (6% acetonitrile in water), vortexed for 5 s, resuspended at least three times with a micropipette and sonicated (Branson 3510, Danbury, CT, USA) for 15 min. Finally, samples were transferred into amber glass vials (Supelco, Bellefonte, PA, USA) with 250 µL glass inserts (Supelco) for further analysis on UHPLC-UV.\nAn Agilent 1290 UHPLC system (Agilent, Waldbronn, Germany) consisting of an autosampler, quaternary pump, degasser and DAD-detector (diode array detector) was used for all uptake measurements. […] All calculations concerning the evaluation of recorded data were made in MS Excel (Microsoft Corporation, Seattle, WA, USA). […]\nThe larval amount of hepatotoxicant (mg/kg) was calculated assuming the weight of a 3 or 4 dpf Tg(fabp10a:DsRed) zebrafish larva to be 0.25 mg."}, "[6]": {"conditions": "all three administration routes, MC/MD and dilutions"}, "[7]": {"conditions": "immersion, MC and lower concentrations"}}}
{"smiles": "C[C@@H]1O[C@@H](OC[C@H]2O[C@@H](Oc3c(-c4ccc(O)c(O)c4)oc4cc(O)cc(O)c4c3=O)[C@H](O)[C@@H](O)[C@@H]2O)[C@H](O)[C@H](O)[C@H]1O", "note": "[Rutin]", "values": [{"measurement": "MC: maximum non-toxic drug concentration", "setting": "[1]", "value": "200 ^1 µM"}, {"measurement": "lethality (larval death)", "setting": "[1]", "value": "did not induce lethality"}, {"measurement": "MD: maximum non-toxic drug dose", "setting": "[1]; pericardial injection at 3 dpf", "value": "150 ^1 mg/kg"}, {"measurement": "MD: maximum non-toxic drug dose", "setting": "[1]; yolk injection at 3 dpf", "value": "150 ^1 mg/kg"}, {"measurement": "change in amount of recovered hepatocytes", "setting": "[2]", "value": "did not induce any change in the amount of recovered hepatocytes"}, {"measurement": "change in liver size", "setting": "[3]", "value": "did not induce any change in liver size"}, {"measurement": "abnormal liver morphology", "setting": "[4]; [6]", "value": "did not induce abnormal liver morphology"}]}
{"smiles": "CN(C)[C@@H]1C(O)=C(C(N)=O)C(=O)[C@@]2(O)C(O)=C3C(=O)c4c(O)cccc4[C@@](C)(O)[C@H]3C[C@@H]12", "note": "[Tetracycline]", "values": [{"measurement": "MD: maximum non-toxic drug dose", "setting": "[1]; pericardial injection at 3 dpf", "value": "384 ^1 mg/kg"}, {"measurement": "MD: maximum non-toxic drug dose", "setting": "[1]; yolk injection at 3 dpf", "value": 192, "unit": "mg/kg"}, {"measurement": "Hepatotoxicity detected: number of Hepatocytes (CIC)", "setting": "[2]; immersion, MC", "value": "S"}, {"measurement": "hepatotoxicity by CIC hepatocyte count", "setting": "[2]; immersion, three concentrations", "value": "hepatotoxic effects induced by all three tetracycline concentrations"}, {"measurement": "Hepatotoxicity detected: number of Hepatocytes (CIC)", "setting": "[2]; immersion, ¼ MC", "value": "S"}, {"measurement": "Hepatotoxicity detected: number of Hepatocytes (CIC)", "setting": "[2]; immersion, ½ MC", "value": "S"}, {"measurement": "hepatotoxicity by CIC hepatocyte count", "setting": "[2]; injected doses (yolk or pericardial)", "value": "showed no effects"}, {"measurement": "hepatotoxicity by liver size", "setting": "[3]; [7]", "value": "hepatotoxic only at their MC"}, {"measurement": "Hepatotoxicity detected: Liver size", "setting": "[3]; immersion, MC", "value": "S"}, {"measurement": "course of larval concentration after injection", "setting": "[5]", "value": "remained nearly constant"}, {"measurement": "abnormal liver morphology", "setting": "[4]; [6]", "value": "induced abnormal liver morphology in a dose-dependent manner"}, {"measurement": "Hepatotoxicity detected: Morphology", "setting": "[4]; immersion, MC", "value": "S"}, {"measurement": "Hepatotoxicity detected: Morphology", "setting": "[4]; pericardial injection, MD", "value": "S"}, {"measurement": "Hepatotoxicity detected: Morphology", "setting": "[4]; pericardial injection, ½ MD", "value": "S"}, {"measurement": "Hepatotoxicity detected: Morphology", "setting": "[4]; yolk injection, MD", "value": "S"}]}
{"smiles": "OC[C@H]1O[C@@](CO)(O[C@H]2O[C@H](CO)[C@@H](O)[C@H](O)[C@H]2O)[C@@H](O)[C@@H]1O", "note": "[Sucrose]", "values": [{"measurement": "MC: maximum non-toxic drug concentration", "setting": "[1]", "value": "8000 ^1 µM"}, {"measurement": "lethality (larval death)", "setting": "[1]", "value": "did not induce lethality"}, {"measurement": "MD: maximum non-toxic drug dose", "setting": "[1]; pericardial injection at 3 dpf", "value": "548 ^1 mg/kg"}, {"measurement": "MD: maximum non-toxic drug dose", "setting": "[1]; yolk injection at 3 dpf", "value": "548 ^1 mg/kg"}, {"measurement": "change in amount of recovered hepatocytes", "setting": "[2]", "value": "did not induce any change in the amount of recovered hepatocytes"}, {"measurement": "change in liver size", "setting": "[3]", "value": "did not induce any change in liver size"}, {"measurement": "abnormal liver morphology", "setting": "[4]; [6]", "value": "did not induce abnormal liver morphology"}]}
{"smiles": "CC(=O)Nc1ccc(O)cc1", "note": "[Paracetamol]", "values": [{"measurement": "MC: maximum non-toxic drug concentration", "setting": "[1]", "value": 7500, "unit": "µM"}, {"measurement": "lethality (larval death)", "setting": "[1]", "value": "caused larval death in several of the conditions tested"}, {"measurement": "MD: maximum non-toxic drug dose", "setting": "[1]; pericardial injection at 3 dpf", "value": "604 ^1 mg/kg"}, {"measurement": "MD: maximum non-toxic drug dose", "setting": "[1]; yolk injection at 3 dpf", "value": "604 ^1 mg/kg"}, {"measurement": "hepatotoxicity by liver size", "setting": "[3]; [7]", "value": "hepatotoxic only at their MC"}, {"measurement": "Hepatotoxicity detected: Liver size", "setting": "[3]; immersion, MC", "value": "S"}, {"measurement": "hepatotoxicity by liver size", "setting": "[3]; injected (yolk or pericardial)", "value": "exhibited an effect at its MD after yolk administration"}, {"measurement": "Hepatotoxicity detected: Liver size", "setting": "[3]; yolk injection, MD", "value": "S"}, {"measurement": "half-life", "setting": "[5]; Tg(fabp10a:DsRed), zebrafish, in vivo, after both yolk and pericardial injections (604 mg/kg), read-out: half-life of larval concentration", "value": "6 to 8", "unit": "h"}, {"measurement": "course of larval concentration after injection", "setting": "[5]", "value": "fully excreted or metabolized after 24 h"}, {"measurement": "Hepatotoxicity detected: Morphology", "setting": "[4]; immersion, MC", "value": "S"}, {"measurement": "Hepatotoxicity detected: Morphology", "setting": "[4]; immersion, ½ MC", "value": "S"}, {"measurement": "abnormal liver morphology", "setting": "[4]; pericardial injections", "value": "no significant toxic effects"}, {"measurement": "Hepatotoxicity detected: Morphology", "setting": "[4]; yolk injection, MD", "value": "S"}, {"measurement": "Hepatotoxicity detected: Morphology", "setting": "[4]; yolk injection, ½ MD", "value": "S"}]}
